How the values were obtained:
[1] = Binding to human plasma proteins; format: in vitro ADME; conditions: human, plasma; value used in Monte Carlo simulation; read-out: unbound fraction (Fu)
[2] = Population PK model of ceftolozane and tazobactam (healthy volunteers, renal impairment, cUTI/cIAI patients); conditions: for CLd, population estimate: intercompartmental clearance; for Vc (L)^d, population estimate: peripheral volume of distribution per footnote
Method: A population-PK analysis was performed on plasma ceftolozane and tazobactam concentration-time data from adult subjects enrolled in 10 studies. Subjects were included from multiple sites and all studies were performed in accordance with the International Conference on Harmonization guidelines on good clinical practice and the Declaration of Helsinki. An investigational review board approved the study protocols at each site.
Serum concentration data were analyzed from 5 studies in healthy volunteers (n=184), 3 studies in subjects with varying degrees of renal impairment (n=42), and 2 phase 2 studies in patients with bacterial infections (cUTIs [n=73] and cIAIs [n=77]). In all studies, ceftolozane was administered as a 1-hour intravenous infusion either alone or in combination with tazobactam at a fixed 2:1 ratio (ceftolozane:tazobactam). […] In the phase 2 trials, cUTI patients received ceftolozane alone 1000 mg (q8h) and cIAI patients received ceftolozane/tazobactam 1000/500 mg (q8h).
All subjects who received at least 1 dose of study medication and had at least 1 measurement of ceftolozane or tazobactam were included (N=376). Plasma concentrations of ceftolozane and tazobactam were determined by a validated liquid-chromatography-tandem mass spectrometry assay (MicroConstants, Inc., San Diego, Calif.) described previously. Concentrations below the limit of quantitation (BLQ), as defined previously, were considered as missing. No substitutions were made to account for these missing data points.
Base model development. The model was developed in 2 stages: a preliminary PK model was developed based on datasets from 3 studies. In the current analysis, the structural model was refined using the PK data from 10 studies (including patients with cUTI or cIAI) and the covariate analysis repeated. The results based on this revised model are presented here. A nonlinear mixed-effects model was developed with Phoenix® NLME™ software, version 1.2, 2012 (Certara L. P. Pharsight, St. Louis, Mo.) using first-order maximum likelihood estimation, and a 2-compartment structure model was fitted to the plasma concentration time data. The First Order Conditional Estimation-Extended Least Squares (FOCE-ELS) engine was used for model fitting. The software R (R Foundation for Statistical Computing, Vienna, Austria, 2013) was used to generate tables of post hoc PK parameters and descriptive statistics.
Sources of variability, that may affect drug exposure, were identified using correlation plots of individual random effects (ETA with mean 0 and estimated variance ? ^2) of parameters such as systemic clearance (CL) and central volume of distribution (Vc) versus covariates. Extrinsic covariates analyzed included dose levels, drug-drug interactions between ceftolozane and tazobactam, and disease status (bacterial infections). Intrinsic covariates analyzed included body weight, age, sex, ethnicity, and baseline calculated CrCL). […] Renal impairment was categorized as normal (CrCL≥90 mL/min), mild (CrCL≥50-<90 mL/min), moderate (CrCL≥30-<50 mL/min), and severe (CrCL≥15-<30 mL/min).
Scatter plots were used to examine the effect of continuous variables and box plots were used for categorical variables. […] Covariates were introduced in a multiplicative order using a power model standardized by the median for continuous covariates and a linear model with an exponentiated factor relative to the reference for categorical covariates.
Final population PK model: evaluation and performance. The final population-PK models for ceftolozane and tazobactam were evaluated using standard diagnostics, goodness-of-fit criteria, nonparametric bootstrap resampling, and visual predictive check (VPC).

Row | Structure (SMILES) | fraction unbound [1] | Exponent of the relationship between CLcr and CL ([2]; Table 31 model) | Interindividual variability of CL, estimate ([2]; Table 31 model) [%] | Interindividual variability of Vc, estimate ([2]; Table 31 model) [%] | Proportional shift in Vc for infected patients ([2]; Table 31 model) | Vc, population estimate ([2]; Table 31 model) [L] | CLd, population estimate ([2]; Table 31 model) [L/h] | Vc (L)^d, population estimate ([2]; Table 31 model) [L] | between-subject variability (BSV) of CL ([2]; final model) [%] | also measured
1 | Cn1c(N)c(NC(=O)NCCN)c[n+]1CC1=C(C(=O)O)N2C(=O)[C@@H](NC(=O)/C(=N\OC(C)(C)C(=O)O)c3nsc(N)n3)[C@H]2SC1 [Ceftolozane, (6R,7R)-3-[(5-amino-4-{[(2-aminoethyl)carbamoyl]amino}-1-methyl-1H-pyrazol-2-ium-2-yl)methyl]-7-({(2Z)-2-(5-amino-1,2,4-thiadiazol-3-yl)-2-[(1-carboxy-1-methylethoxy)imino]acetyl}amino)-8-oxo-5-thia-1-azabicyclo[4.2.0]oct-2-ene-2-carboxylate] | 0.79 | 0.75 | 34.3 | 34.0 | 1.37 | 11.8 | 0.884 | 2.88 | 33.0 | Exponent of the relationship between weight and CL ([2]; Table 31 model): 0.76; Proportional shift in CL for infected patients ([2]; Table 31 model): 1.26; Vc, population PK ([2]; cIAI): 18.2 L; Vc, population PK ([2]; cUTI, at 74 kg body weight): 13.8 L; CL, population estimate ([2]; human): 5.14 L/h; inter-compartment clearance (CL2), population PK ([2]; human): about 1 L/h; volume of distribution in the peripheral compartment (Vp), population PK ([2]; human): about 3 L; CL higher than in healthy subjects ([2]; patients with cUTI and cIAI): about 20%
2 | C[C@]1(Cn2ccnn2)[C@H](C(=O)O)N2C(=O)C[C@H]2S1(=O)=O [Tazobactam, tazobactam] | 0.7 | 0.67 | 50.2 | 52.5 | 1.47 | 14.2 | 3.13 | 4.29 | 50.2 | power function of baseline CrCL on CL ([2]; [CrCL/115] exponent): 0.67; CL, population estimate ([2]; final model): 18.0 L/h; between-subject variability (BSV) of Vc ([2]; final model): 52.5%; inter-compartment clearance (CL2), population PK ([2]; final model): 3.13 L/h; volume of distribution in the peripheral compartment (Vp), population PK ([2]; final model): 4.29 L; CL, population estimate ([2]; previously-developed population PK model (Table 31)): 18.0 L/h; Vc, population estimate ([2]; subjects without infection): 14.2 L

From patent US10933053B2, “Treating infections with ceftolozane/tazobactam in subjects having impaired renal function” (MERCK SHARP & DOHME CORP., priority 2013, dated 2021)
